Structures are written as SMILES.

On to `COC1OCC[C@@H]1NC(=O)[C@H](CC(C)C)NC(=O)CNC(=O)COc1ccc2c(c1)Nc1ccccc1S2` (stereo partly shown), for which the melting point – broadly, the temperature of the solid-liquid transition – fell in the range of 181 to 182 °C.

The compound `COC1OCC[C@@H]1NC(=O)[C@H](CC(C)C)NC(=O)[C@H](C)NC(=O)COc1ccc2c(c1)Nc1ccccc1S2` (stereo partly shown) displayed a melting point of 195 to 196 °C.

Compound `COC1OCC[C@@H]1NC(=O)[C@H](CC(C)C)NC(=O)[C@@H](NC(=O)COc1ccc2c(c1)Nc1ccccc1S2)C(C)C` (stereo partly shown) had a melting point of 240 to 241 °C.

`COC1OCC[C@@H]1NC(=O)[C@H](CC(C)C)NC(=O)CN(C)C(=O)COc1ccc2c(c1)Nc1ccccc1S2` (stereo partly shown) returned a melting point of 92 to 95 °C.

For `COC1OCC[C@@H]1NC(=O)[C@H](CC(C)C)NC(=O)[C@H](NC(=O)COc1ccc2c(c1)Nc1ccccc1S2)C(C)C` (stereo partly shown), the melting point was 204 to 206 °C.

For `COC1OCC[C@@H]1NC(=O)[C@H](CC(C)C)NC(=O)[C@@H](NC(=O)COc1ccc2c(c1)Nc1ccccc1S2)C(C)(C)C` (stereo partly shown), the melting point lay within 152 to 153 °C.

For the compound `CC[C@H](NC(=O)COc1ccc2c(c1)Nc1ccccc1S2)C(=O)N[C@@H](CC(C)C)C(=O)N[C@H]1CCOC1OC` (stereo partly shown), the melting point lay in the range of 164 to 165 °C.

Regarding `CCC[C@H](NC(=O)COc1ccc2c(c1)Nc1ccccc1S2)C(=O)N[C@@H](CC(C)C)C(=O)N[C@H]1CCOC1OC` (stereo partly shown), the melting point lay in the range of 225 to 226 °C.

In turn, `COC1OCC[C@@H]1NC(=O)[C@H](CC(C)C)NC(=O)[C@@H](NC(=O)COc1ccc2c(c1)Nc1ccccc1S2)[C@@H](C)O` (stereo partly shown) showed a melting point of 92 to 93 °C.

Take `COC1OCC[C@@H]1N(C(=O)[C@@H](NC(=O)COc1ccc2c(c1)Nc1ccccc1S2)c1ccccc1)C(=O)[C@@H](N)CC(C)C` (stereo partly shown): the melting point lay within 215 to 217 °C.

Consider `COC1OCC[C@@H]1NC(=O)[C@H](CC(C)C)NC(=O)C(C)(C)NC(=O)COc1ccc2c(c1)Nc1ccccc1S2` (stereo partly shown), for which the melting point fell in the range of 119 to 120 °C.

As for `COC1OCC[C@@H]1NC(=O)[C@H](CC(C)C)NC(=O)[C@H](CC(C)C)NC(=O)c1ccc2c(c1)Nc1ccccc1S2` (stereo partly shown), the melting point lay within 180 to 180.5 °C.

Take `COC1OCC[C@@H]1NC(=O)[C@H](CC(C)C)NC(=O)[C@H](CCCCNC(=O)OCc1ccccc1)NC(=O)c1ccc2c(c1)Nc1ccccc1S2` (stereo partly shown): the melting point was 102 to 103 °C.

The compound `CC(C)CN(CC(=O)N[C@H]1CCOC1O)C(=O)CNC(=O)COc1ccc2c(c1)Nc1ccccc1S2` (stereo partly shown) returned a melting point of 122 to 124 °C.

Turning to `COC1OCC[C@@H]1NC(=O)[C@H](CC(C)C)NC(=O)[C@@H]1CCCN1C(=O)c1ccc2c(c1)Nc1ccccc1S2` (stereo partly shown), the melting point lay in the range of 243 to 243.5 °C.

Take `CC(C)C[C@H](NC(=O)CNC(=O)c1ccc2c(c1)Nc1ccccc1S2)C(=O)N[C@H]1CCOC1O` (stereo partly drawn) [Example 7, N-(10H-phenothiazin-2-ylcarbonyl)glycyl-N^1-[(3S)-2-hydroxytetrahydrofuran-3-yl]-L-leucinamide]: the melting point was 126 to 126.5 °C.

As for `CC(C)C[C@H](NC(=O)c1ccc2c(c1)Nc1ccccc1S2)C(=O)N[C@@H](CC(C)C)C(=O)N[C@H]1CCOC1O` (stereo partly drawn) [Example 8, N-(10H-phenothiazin-2-ylcarbonyl)leucyl-N^1-[(3S)-2-hydroxytetrahydrofuran-3-yl]-L-leucinamide], the melting point was in the range of 144 to 144.5 °C.

Consider `CC(C)C[C@H](NC(=O)[C@H](CCCCNC(=O)OCc1ccccc1)NC(=O)c1ccc2c(c1)Nc1ccccc1S2)C(=O)N[C@H]1CCOC1O` (stereo partly drawn) [Example 9, N 6-[(benzyloxy)carbonyl]-N^2-(10H-phenothiazin-2-ylcarbonyl)lysyl-N^1-[(3S)-2-hydroxytetrahydrofuran-3-yl]-L-leucinamide], for which the melting point lay within 109 to 109.5 °C.

Turning to `CC(C)C[C@H](NC(=O)[C@@H]1CCCN1C(=O)c1ccc2c(c1)Nc1ccccc1S2)C(=O)N[C@H]1CCOC1O` (stereo partly drawn) [Example 10, 1-(10H-phenothiazin-2-ylcarbonyl)-L-prolyl-N^1-[(3S)-2-hydroxytetrahydrofuran-3-yl]-L-leucinamide], the melting point is 144.5 to 145 °C.

The values above are taken from patent US7384933B2, “Derivatives of 2-hydroxytetrahydrofuran and their use as medicaments” (priority 2003, dated 2008).
